What is called IC50 is the concentration needed to halve the response being measured. A higher IC50 goes with weaker potency.

One experiment deals with Cathepsin S (Homo sapiens, UniProt P25774). The experiment in a line: Inhibitory concentration against human cysteine protease cathepsin S.
Sequence of Cathepsin S (P25774 whole entry): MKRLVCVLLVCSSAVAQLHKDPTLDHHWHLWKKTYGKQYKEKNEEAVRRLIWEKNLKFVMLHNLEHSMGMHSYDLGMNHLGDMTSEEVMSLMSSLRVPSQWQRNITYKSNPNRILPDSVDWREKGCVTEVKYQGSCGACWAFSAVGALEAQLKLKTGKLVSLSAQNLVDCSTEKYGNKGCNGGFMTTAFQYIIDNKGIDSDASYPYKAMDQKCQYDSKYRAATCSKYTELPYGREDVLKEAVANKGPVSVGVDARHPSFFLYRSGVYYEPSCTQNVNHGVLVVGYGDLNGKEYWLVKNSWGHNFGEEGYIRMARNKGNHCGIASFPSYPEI
`COc1ccccc1N1CCN(CC(O)Cn2nc(-c3ccc(I)cc3)c3c2CCN(C(C)=O)C3)CC1` (configuration not stated): the IC50 stood at 600 nM.
On the same count and under the same terms, then `N#Cc1ccccc1N1CCN(CC(Cn2nc(-c3ccc(I)cc3)c3c2CCN(C(N)=O)C3)OC(N)=O)CC1` (configuration not stated), with 20 nM; and `CC(=O)N1CCc2c(c(-c3ccc(Cl)cc3)nn2CC(O)CN2CCN(c3ccccc3Cl)CC2)C1` (configuration not stated), with 1000 nM.
On the same count and under the same terms, the figure for `CC(=O)N1CCc2c(c(-c3ccc(Cl)cc3)nn2CC(O)CN2CCN(C(c3ccc(F)cc3)c3ccc(F)cc3)CC2)C1` (configuration not stated) is 1000 nM.
`COc1ccccc1N1CCN(CCCCn2nc(-c3ccc(Cl)cc3)c3c2CCN(C(C)=O)C3)CC1` came in with an IC50 of 9500 nM.
`Cc1ccccc1N1CCN(CC(O)Cn2nc(-c3ccc(I)cc3)c3c2CCN(C(N)=O)C3)CC1` (configuration not stated) registered an IC50 of 14000 nM.

Test system in another experiment: not listed separately
The experiment in a line: Inhibitory concentration against human Li processing. Type of experiment: functional.
With `N#Cc1ccccc1N1CCN(CC(Cn2nc(-c3ccc(I)cc3)c3c2CCN(C(N)=O)C3)OC(N)=O)CC1` (configuration not stated), the IC50 was 880 nM.

Source of the values: ChEMBL document CHEMBL1137979, “Nonpeptidic, noncovalent inhibitors of the cysteine protease cathepsin S” (J Med Chem, 2004).
